Results as given in ChEMBL document CHEMBL5137088 (J Med Chem, 2022).

Assays:
[1] = in vitro; conditions: dog, MDCK cells
[2] = in vitro; conditions: chicken, chick embryo fibroblast cells
[3] = biological target: Cytochrome P450 2C9 (Homo sapiens, UniProt P11712); type: ADME, microsomes, Liver, Microsome
[4] = Subacute toxicity in 12 hrs fasted Kunming mouse assessed as poisoning symptom at 50 mg/kg, po administered once every two days for 2 weeks; type: organism-based; conditions: in vivo
[5] = Subacute toxicity in 12 hrs fasted Kunming mouse assessed as animal death at 50 mg/kg, po administered once every two days for 2 weeks; type: organism-based; conditions: in vivo
[6] = Oral bioavailability in Sprague-Dawley rat at 20 mg/kg measured upto 12 hrs by LC-MS/MS analysis; type: ADME, organism-based; conditions: in vivo
[7] = in vitro; conditions: human, liver microsomes
[8] = biological target: Cytochrome P450 3A4 (Homo sapiens, UniProt P08684); type: ADME, microsomes, Liver, Microsome
Sequence of Cytochrome P450 3A4 (P08684 whole entry): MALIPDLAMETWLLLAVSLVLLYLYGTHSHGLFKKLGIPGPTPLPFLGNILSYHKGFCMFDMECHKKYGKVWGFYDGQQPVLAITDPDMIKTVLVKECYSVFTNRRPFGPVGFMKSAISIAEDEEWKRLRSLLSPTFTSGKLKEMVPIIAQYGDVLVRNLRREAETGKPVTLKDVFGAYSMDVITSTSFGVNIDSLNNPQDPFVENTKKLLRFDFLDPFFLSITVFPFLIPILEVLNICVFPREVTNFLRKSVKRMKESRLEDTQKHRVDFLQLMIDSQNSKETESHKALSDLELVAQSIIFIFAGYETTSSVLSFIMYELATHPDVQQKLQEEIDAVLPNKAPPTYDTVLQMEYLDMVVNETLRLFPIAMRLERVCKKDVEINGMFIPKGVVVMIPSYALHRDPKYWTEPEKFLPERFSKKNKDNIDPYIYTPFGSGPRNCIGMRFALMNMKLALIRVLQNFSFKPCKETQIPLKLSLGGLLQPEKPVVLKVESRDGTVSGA

[9] = Clearance in Sprague-Dawley rat at 2 mg/kg, iv measured upto 12 hrs by LC-MS/MS analysis; type: ADME, organism-based; conditions: in vivo
[10] = Subacute toxicity in 12 hrs fasted Kunming mouse assessed as animal death at 50 mg/kg, iv administered once every two days for 2 weeks; type: organism-based; conditions: in vivo
[11] = Half-life in Sprague-Dawley rat at 20 mg/kg, po measured upto 12 hrs by LC-MS/MS analysis; type: ADME, organism-based; conditions: in vivo
[12] = in vitro; conditions: human, Caco-2
[13] = Acute toxicity in 12 hrs fasted Kunming mouse assessed as lethargy at 1000 mg/kg, po measured for 1 week; type: organism-based; conditions: in vivo, 168 h, time 1 weeks
[14] = Tmax in Sprague-Dawley rat at 2 mg/kg, iv measured upto 12 hrs by LC-MS/MS analysis; type: ADME, organism-based; conditions: in vivo
[15] = in vitro; conditions: human, human liver (fraction not stated)
[16] = Acute toxicity in 12 hrs fasted Kunming mouse assessed as clonic convulsion at 1000 mg/kg, po measured for 1 week; type: organism-based; conditions: in vivo, 168 h, time 1 weeks
[17] = biological target: Cytochrome P450 2D6 (Homo sapiens, UniProt P10635)
Sequence of Cytochrome P450 2D6 (P10635 whole entry): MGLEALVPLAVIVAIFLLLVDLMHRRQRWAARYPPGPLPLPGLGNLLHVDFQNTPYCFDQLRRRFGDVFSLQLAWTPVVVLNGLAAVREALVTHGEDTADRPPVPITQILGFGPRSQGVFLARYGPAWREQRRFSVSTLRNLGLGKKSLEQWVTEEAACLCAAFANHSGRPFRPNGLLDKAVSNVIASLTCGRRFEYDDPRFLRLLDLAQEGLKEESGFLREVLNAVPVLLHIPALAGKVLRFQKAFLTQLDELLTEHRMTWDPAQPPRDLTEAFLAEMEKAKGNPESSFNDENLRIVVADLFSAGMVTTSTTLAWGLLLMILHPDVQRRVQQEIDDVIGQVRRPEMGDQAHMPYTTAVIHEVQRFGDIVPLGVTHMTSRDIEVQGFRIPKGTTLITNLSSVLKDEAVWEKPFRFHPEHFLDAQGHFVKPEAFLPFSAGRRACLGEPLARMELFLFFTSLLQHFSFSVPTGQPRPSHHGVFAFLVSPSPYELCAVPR

[18] = Tmax in Sprague-Dawley rat at 20 mg/kg, po measured upto 12 hrs by LC-MS/MS analysis; type: ADME, organism-based; conditions: in vivo
[19] = Volume of distribution at steady state in Sprague-Dawley rat at 2 mg/kg, iv measured upto 12 hrs by LC-MS/MS analysis; type: ADME, organism-based; conditions: in vivo, read-out: Vdss
[20] = biological target: T1, Cytochrome P450 1A2 (Homo sapiens, UniProt P05177)
T1 sequence (P05177 whole entry): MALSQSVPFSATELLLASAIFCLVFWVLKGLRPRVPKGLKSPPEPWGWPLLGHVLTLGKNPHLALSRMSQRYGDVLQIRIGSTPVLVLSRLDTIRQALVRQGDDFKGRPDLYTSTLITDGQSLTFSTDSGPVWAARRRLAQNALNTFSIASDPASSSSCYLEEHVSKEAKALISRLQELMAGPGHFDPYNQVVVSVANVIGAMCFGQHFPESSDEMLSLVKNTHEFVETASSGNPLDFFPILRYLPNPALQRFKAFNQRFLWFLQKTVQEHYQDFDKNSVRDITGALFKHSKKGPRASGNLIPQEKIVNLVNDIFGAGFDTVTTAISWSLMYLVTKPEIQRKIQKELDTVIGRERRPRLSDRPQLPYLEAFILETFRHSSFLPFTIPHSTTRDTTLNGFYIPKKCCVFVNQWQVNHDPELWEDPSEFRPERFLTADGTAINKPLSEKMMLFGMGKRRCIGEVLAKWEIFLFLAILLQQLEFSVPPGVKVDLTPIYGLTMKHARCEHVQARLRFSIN

[21] = in vitro; conditions: human, human liver (fraction not stated); remark: listed apart in the source
[22] = Acute toxicity in 12 hrs fasted Kunming mouse assessed as ruffled fur at 1000 mg/kg, po measured for 1 week; type: organism-based; conditions: in vivo, 168 h, time 1 weeks
[23] = Subacute toxicity in 12 hrs fasted Kunming mouse assessed as side effect at 50 mg/kg, iv administered once every two days for 2 weeks; type: organism-based; conditions: in vivo
[24] = Subacute toxicity in 12 hrs fasted Kunming mouse assessed as increase in body weight at 50 mg/kg, po administered once every two days for 2 weeks relative to control; type: organism-based; conditions: in vivo
[25] = Cmax in Sprague-Dawley rat at 20 mg/kg, po measured upto 12 hrs by LC-MS/MS analysis; type: ADME, organism-based; design: time < 12 hrs, dose 20 mg/kg, route po; conditions: in vivo
[26] = Acute toxicity in 12 hrs fasted Kunming mouse assessed as animal death at 1000 mg/kg, po measured for 1 week; type: organism-based; conditions: in vivo, 168 h, time 1 weeks
[27] = biological target: Cytochrome P450 2C19 (Homo sapiens, UniProt P33261); type: ADME, microsomes, Liver, Microsome
Sequence of Cytochrome P450 2C19 (P33261 whole entry): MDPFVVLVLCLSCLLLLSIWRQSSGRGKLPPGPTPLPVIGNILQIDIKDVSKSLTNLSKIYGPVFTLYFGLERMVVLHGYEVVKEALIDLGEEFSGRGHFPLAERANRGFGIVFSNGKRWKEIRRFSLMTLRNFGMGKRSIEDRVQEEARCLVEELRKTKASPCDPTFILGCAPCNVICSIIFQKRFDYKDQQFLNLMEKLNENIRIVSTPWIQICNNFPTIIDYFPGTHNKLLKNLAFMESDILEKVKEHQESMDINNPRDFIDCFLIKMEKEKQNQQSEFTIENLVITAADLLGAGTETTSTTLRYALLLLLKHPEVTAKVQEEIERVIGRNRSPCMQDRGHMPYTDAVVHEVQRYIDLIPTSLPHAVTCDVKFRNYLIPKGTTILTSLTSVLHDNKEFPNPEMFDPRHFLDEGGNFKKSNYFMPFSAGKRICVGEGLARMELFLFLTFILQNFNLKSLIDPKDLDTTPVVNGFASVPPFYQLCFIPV

[28] = Half-life in Sprague-Dawley rat at 2 mg/kg, iv measured upto 12 hrs by LC-MS/MS analysis; type: ADME, organism-based; conditions: in vivo
[29] = Cmax in Sprague-Dawley rat at 2 mg/kg, iv measured upto 12 hrs by LC-MS/MS analysis; type: ADME, organism-based; design: time < 12 hrs, dose 2 mg/kg, route iv; conditions: in vivo

Sequence of Cytochrome P450 2C9 (P11712 whole entry): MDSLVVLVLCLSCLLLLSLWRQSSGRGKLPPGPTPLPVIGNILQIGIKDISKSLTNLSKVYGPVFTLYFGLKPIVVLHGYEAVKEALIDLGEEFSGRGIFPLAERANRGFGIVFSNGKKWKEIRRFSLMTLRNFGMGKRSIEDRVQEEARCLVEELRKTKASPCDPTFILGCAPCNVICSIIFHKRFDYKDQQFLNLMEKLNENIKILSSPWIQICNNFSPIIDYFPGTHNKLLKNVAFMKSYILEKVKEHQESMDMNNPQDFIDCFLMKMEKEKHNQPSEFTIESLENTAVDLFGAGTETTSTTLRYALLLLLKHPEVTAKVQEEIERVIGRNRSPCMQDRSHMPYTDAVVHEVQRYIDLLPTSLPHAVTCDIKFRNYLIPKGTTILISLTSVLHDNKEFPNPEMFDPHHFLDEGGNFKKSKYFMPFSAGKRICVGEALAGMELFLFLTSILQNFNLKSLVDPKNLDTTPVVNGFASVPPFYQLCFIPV

| Structure (SMILES) | CC50 at 48 h [1] | CC50 at 48 h [2] | IC50 [3] | half-life at 2 h [7] | IC50 [8] | remaining at 60 min [15] | IC50 [17] | IC50 [20] | CLint scaled at 2 h [21] | IC50 [27] | further results |
| --- | --- | --- | --- | --- | --- | --- | --- | --- | --- | --- | --- |
| CCC(CC)O[C@@H]1C=C(C(=O)O)C[C@H](NCc2c(C)cc(-c3ccsc3)cc2C)[C@H]1NC(C)=O | > 250 µM | > 250 µM |  |  |  |  |  |  |  |  |  |
| CCC(CC)O[C@@H]1C=C(C(=O)O)C[C@H](NCc2ccc(-c3cccs3)cc2OC)[C@H]1NC(C)=O | > 250 µM | > 250 µM | 41.6 µM | 120 min | 87.6 µM | 73.8% | > 100 µM | 20.7 µM | 10.4 mL/min/kg | 30.3 µM | Activity [4]: Non-Toxic; Activity [5]: Non-Toxic; bioavailability [6]: 1.5%; clearance [9]: 17.7 mL/min/kg; Activity [10]: Non-Toxic; half-life [11]: 20.9 min; Papp A→B at 2 h, 20 µM [12]: 0.0191 ×10⁻⁶ cm/s; Activity [13]: Non-Toxic; Tmax [14]: 4.98 min; Activity [16]: Non-Toxic; Tmax [18]: 20 min; Vd [19]: 0.191 L/kg; Activity [22]: Non-Toxic; Activity [23]: Non-Toxic; Activity [24]: Non-Toxic; Cmax [25]: 511 ng/mL; Activity [26]: Non-Toxic; half-life [28]: 12.8 min; Cmax [29]: 6870 ng/mL |
| CCC(CC)O[C@@H]1C=C(C(=O)O)C[C@H](NCc2ccc(-c3ccsc3)cc2O)[C@H]1NC(C)=O | > 250 µM | > 250 µM |  | 44.5 min |  | 59% |  |  | 17.2 mL/min/kg |  |  |
| C[C@]12CC[C@H]3[C@@H](CCC4=CC(=O)CC[C@@]43C)[C@@H]1CC[C@@H]2O [TESTOSTERONE] |  |  |  |  |  | 5.1% |  |  | 89.7 mL/min/kg |  |  |
| CCC(CC)O[C@@H]1C=C(C(=O)O)C[C@H](N)[C@H]1NC(C)=O [OSELTAMIVIR CARBOXYLATE] | > 250 µM | > 250 µM |  | 72.4 min |  | 40.6% |  |  | 28 mL/min/kg |  |  |
| CC(C)(C)NCC(O)COc1cccc2c1CC(O)C(O)C2 (stereo unspecified) [NADOLOL] |  |  |  |  |  |  |  |  |  |  | Papp A→B at 2 h, 20 µM [12]: 0.0491 ×10⁻⁶ cm/s |
| O=C(O)Cc1ccccc1Nc1c(Cl)cccc1Cl [DICLOFENAC] |  |  |  | 5.5 min |  |  |  |  | 225 mL/min/kg |  |  |
| CCC(CC)O[C@@H]1C=C(C(=O)O)C[C@H](NCc2ccc(-c3ccsc3)cc2C)[C@H]1NC(C)=O | > 250 µM | > 250 µM |  |  |  |  |  |  |  |  |  |
| CCC(CC)O[C@@H]1C=C(C(=O)O)C[C@H](NCc2ccc(-c3cccs3)cc2Cl)[C@H]1NC(C)=O | > 250 µM | > 250 µM | 86.5 µM | > 145 min | > 100 µM | 76.1% | > 100 µM | 12.7 µM | < 8.6 mL/min/kg | 39.3 µM |  |
| CCC(CC)O[C@@H]1C=C(C(=O)O)C[C@H](NCc2ccc(-c3cccs3)c(Cl)c2)[C@H]1NC(C)=O | > 250 µM | > 250 µM |  |  |  |  |  |  |  |  |  |
| CCC(CC)O[C@@H]1C=C(C(=O)O)C[C@H](NCc2ccc(-c3cccs3)cc2C)[C@H]1NC(C)=O | > 250 µM | > 250 µM | 43.6 µM | 123 min | > 100 µM | 71.7% | > 100 µM | 19.5 µM | 10.2 mL/min/kg | 38.9 µM |  |
| CCC(CC)O[C@@H]1C=C(C(=O)O)C[C@H](NCc2ccc(-c3ccsc3)cc2Cl)[C@H]1NC(C)=O | > 250 µM | > 250 µM | 31.8 µM | > 145 min | 72.5 µM | 78.1% | > 100 µM | 14.3 µM | < 8.6 mL/min/kg | 36.6 µM |  |
| CCC(CC)O[C@@H]1C=C(C(=O)O)C[C@H](NCc2ccc(-c3ccsc3)cc2OC)[C@H]1NC(C)=O | > 250 µM | > 250 µM | 47.3 µM | > 145 min | > 100 µM | 79.3% | > 100 µM | 28.9 µM | < 8.6 mL/min/kg | 47.8 µM | Activity [4]: Non-Toxic; Activity [5]: Non-Toxic; bioavailability [6]: 1.58%; clearance [9]: 17.2 mL/min/kg; Activity [10]: Non-Toxic; half-life [11]: 50.2 min; Papp A→B at 2 h, 20 µM [12]: 0.0262 ×10⁻⁶ cm/s; Activity [13]: Non-Toxic; Tmax [14]: 4.98 min; Activity [16]: Non-Toxic; Tmax [18]: 30 min; Vd [19]: 0.179 L/kg; Activity [22]: Non-Toxic; Activity [23]: Non-Toxic; Activity [24]: Non-Toxic; Cmax [25]: 491 ng/mL; Activity [26]: Non-Toxic; half-life [28]: 12.8 min; Cmax [29]: 7200 ng/mL |
| CCC(CC)O[C@@H]1C=C(C(=O)O)C[C@H](NCc2c(C)cc(-c3cccs3)cc2C)[C@H]1NC(C)=O | > 250 µM | > 250 µM |  |  |  |  |  |  |  |  |  |
